Laboratory results reported in patent US10111428B2, “Nematocide containing lactonic ring and preparation method and application thereof” (priority 2015, dated 2018).
Values after ≈ are worked out from the molar mass of the structure shown.

Columns and labels:
Nematode eggs = assay: Plant pathogenic nematode inhibition test by dipping: nematode egg hatch inhibition (NY/T 1154.5-2006); assay type: in vivo
Protocol: A plant pathogenic nematode inhibition test is conducted by dipping with the compounds in Table 1; and by referring to NY/T 1154.5-2006 (Part 5: Dipping Test for Insecticide Ovicidal Activity), the nematode egg hatch inhibition activity of the compounds is tested, as shown in Table 2: […]

Earthworm = Earthworm toxicity test (Test Guidelines on Environmental Safety Assessment for Chemical Pesticides); assay type: in vivo; conditions: cell adds 'low toxicity'
Protocol: (§1) According to the earthworm and edaphon toxicity test procedures as prescribed in the Test Guidelines on Environmental Safety Assessment for Chemical Pesticides, earthworm and edaphon toxicity tests are conducted on compounds 1 to 60 from Table 1. The simulative usual dose of pesticide in the edaphon test is 40 ppm.

Edaphon = Edaphon toxicity test (Test Guidelines on Environmental Safety Assessment for Chemical Pesticides); conditions: 15 d; 100 times of usual dose (simulative usual dose 40 ppm); cell adds 'low toxicity'
Protocol: as §1

Nematode J2 = assay: Plant pathogenic nematode inhibition test by dipping: second-stage juveniles; assay type: in vivo
[1] = Test object: nematode eggs, dipping
[2] = Test object: nematode J2 (second-stage juveniles), dipping

SMILES: O=C1CC(C(=O)OCCC=C(F)F)C(c2ccccc2)O1 (centres unmarked) [Compound 1]
- LC50 (Nematode eggs; in vivo): 11.81 µg/mL (≈ 39.9 µM)
- Earthworm Toxicity LC50 (14 d) (Earthworm): >10, low toxicity mg/L
- Edaphon Toxicity (15 d) (Inhibition ratio when added amount is 100 times of usual dose) (Edaphon): <50%, low toxicity
- LC50 (Nematode J2; in vivo): 12.24 µg/mL (≈ 41.3 µM)

SMILES: Cc1ccccc1C1OC(=O)CC1C(=O)OCCC=C(F)F (centres unmarked) [Compound 2]
- LC50 (Nematode eggs; in vivo): 9.81 µg/mL (≈ 31.6 µM)
- Earthworm Toxicity LC50 (14 d) (Earthworm): >10, low toxicity mg/L
- Edaphon Toxicity (15 d) (Inhibition ratio when added amount is 100 times of usual dose) (Edaphon): <50%, low toxicity
- LC50 (Nematode J2; in vivo): 10.14 µg/mL (≈ 32.7 µM)

SMILES: Cc1ccc(C2OC(=O)CC2C(=O)OCCC=C(F)F)cc1 (centres unmarked) [Compound 3]
- LC50 (Nematode eggs; [1]): 10.01 µg/mL (≈ 32.3 µM)
- Earthworm Toxicity LC50 (14 d) (Earthworm): >10, low toxicity mg/L
- Edaphon Toxicity (15 d) (Inhibition ratio when added amount is 100 times of usual dose) (Edaphon): <50%, low toxicity
- LC50 (Nematode J2; [2]): 10.23 µg/mL (≈ 33 µM)

SMILES: CCc1ccc(C2OC(=O)CC2C(=O)OCCC=C(F)F)cc1 (centres unmarked) [Compound 4]
- LC50 (Nematode eggs; in vivo): 10.25 µg/mL (≈ 31.6 µM)
- Earthworm Toxicity LC50 (14 d) (Earthworm): >10, low toxicity mg/L
- Edaphon Toxicity (15 d) (Inhibition ratio when added amount is 100 times of usual dose) (Edaphon): <50%, low toxicity
- LC50 (Nematode J2; in vivo): 10.24 µg/mL (≈ 31.6 µM)

SMILES: CCCc1ccc(C2OC(=O)CC2C(=O)OCCC(F)=C(F)F)cc1 (centres unmarked) [Compound 5]
- LC50 (Nematode eggs; in vivo): 8.02 µg/mL (≈ 22.5 µM)
- Earthworm Toxicity LC50 (14 d) (Earthworm): >10, low toxicity mg/L
- Edaphon Toxicity (15 d) (Inhibition ratio when added amount is 100 times of usual dose) (Edaphon): <50%, low toxicity
- LC50 (Nematode J2; in vivo): 9.777 µg/mL (≈ 27.4 µM)

SMILES: CCCCc1ccc(C2OC(=O)CC2C(=O)OCCC(F)=C(F)F)cc1 (centres unmarked) [Compound 6]
- LC50 (Nematode eggs; in vivo): 11.81 µg/mL (≈ 31.9 µM)
- Earthworm Toxicity LC50 (14 d) (Earthworm): >10, low toxicity mg/L
- Edaphon Toxicity (15 d) (Inhibition ratio when added amount is 100 times of usual dose) (Edaphon): <50%, low toxicity
- LC50 (Nematode J2; in vivo): 13.45 µg/mL (≈ 36.3 µM)

SMILES: O=C1CC(C(=O)OCCC(F)=C(F)F)C(c2ccccc2Cl)O1 (centres unmarked) [Compound 7]
- LC50 (Nematode eggs; [1]): 12.81 µg/mL (≈ 36.7 µM)
- Earthworm Toxicity LC50 (14 d) (Earthworm): >10, low toxicity mg/L
- Edaphon Toxicity (15 d) (Inhibition ratio when added amount is 100 times of usual dose) (Edaphon): <50%, low toxicity
- LC50 (Nematode J2; [2]): 13.25 µg/mL (≈ 38 µM)

SMILES: O=C1CC(C(=O)OCCC(F)=C(F)F)C(c2cccc(Cl)c2Cl)O1 (centres unmarked) [Compound 8]
- LC50 (Nematode eggs; in vivo): 12.81 µg/mL (≈ 33.4 µM)
- Earthworm Toxicity LC50 (14 d) (Earthworm): >10, low toxicity mg/L
- Edaphon Toxicity (15 d) (Inhibition ratio when added amount is 100 times of usual dose) (Edaphon): <50%, low toxicity
- LC50 (Nematode J2; in vivo): 13.14 µg/mL (≈ 34.3 µM)

SMILES: O=C1CC(C(=O)OCCC(F)=C(F)F)C(c2ccc(Cl)cc2Cl)O1 (centres unmarked) [Compound 9]
- LC50 (Nematode eggs; in vivo): 10.36 µg/mL (≈ 27 µM)
- Earthworm Toxicity LC50 (14 d) (Earthworm): >10, low toxicity mg/L
- Edaphon Toxicity (15 d) (Inhibition ratio when added amount is 100 times of usual dose) (Edaphon): <50%, low toxicity
- LC50 (Nematode J2; in vivo): 13.14 µg/mL (≈ 34.3 µM)

SMILES: O=C1CC(C(=O)OCCC(F)=C(F)F)C(c2cc(Cl)ccc2Cl)O1 (centres unmarked) [Compound 10]
- LC50 (Nematode eggs; in vivo): 10.80 µg/mL (≈ 28.2 µM)
- Earthworm Toxicity LC50 (14 d) (Earthworm): >10, low toxicity mg/L
- Edaphon Toxicity (15 d) (Inhibition ratio when added amount is 100 times of usual dose) (Edaphon): <50%, low toxicity
- LC50 (Nematode J2; in vivo): 13.30 µg/mL (≈ 34.7 µM)

SMILES: O=C1CC(C(=O)OCCC(F)=C(F)F)C(c2c(Cl)cccc2Cl)O1 (centres unmarked) [Compound 11]
- LC50 (Nematode eggs; in vivo): 13.30 µg/mL (≈ 34.7 µM)
- Earthworm Toxicity LC50 (14 d) (Earthworm): >10, low toxicity mg/L
- Edaphon Toxicity (15 d) (Inhibition ratio when added amount is 100 times of usual dose) (Edaphon): <50%, low toxicity
- LC50 (Nematode J2; in vivo): 14.95 µg/mL (≈ 39 µM)

SMILES: O=C1CC(C(=O)OCCC(F)=C(F)F)C(c2cc(Cl)cc(Cl)c2Cl)O1 (centres unmarked) [Compound 12]
- LC50 (Nematode eggs; in vivo): 12.30 µg/mL (≈ 29.5 µM)
- Earthworm Toxicity LC50 (14 d) (Earthworm): >10, low toxicity mg/L
- Edaphon Toxicity (15 d) (Inhibition ratio when added amount is 100 times of usual dose) (Edaphon): <50%, low toxicity
- LC50 (Nematode J2; in vivo): 13.35 µg/mL (≈ 32 µM)

SMILES: O=C1CC(C(=O)OCCC(F)=C(F)F)C(c2cc(Cl)cc(Cl)c2)O1 (centres unmarked) [Compound 13]
- LC50 (Nematode eggs; in vivo): 15.46 µg/mL (≈ 40.3 µM)
- Earthworm Toxicity LC50 (14 d) (Earthworm): >10, low toxicity mg/L
- Edaphon Toxicity (15 d) (Inhibition ratio when added amount is 100 times of usual dose) (Edaphon): <50%, low toxicity
- LC50 (Nematode J2; in vivo): 16.25 µg/mL (≈ 42.4 µM)

SMILES: O=C1CC(C(=O)OCCC(F)=C(F)F)C(c2cccc(Cl)c2)O1 (centres unmarked) [Compound 14]
- LC50 (Nematode eggs; in vivo): 12.10 µg/mL (≈ 34.7 µM)
- Earthworm Toxicity LC50 (14 d) (Earthworm): >10, low toxicity mg/L
- Edaphon Toxicity (15 d) (Inhibition ratio when added amount is 100 times of usual dose) (Edaphon): <50%, low toxicity
- LC50 (Nematode J2; in vivo): 13.01 µg/mL (≈ 37.3 µM)

SMILES: O=C1CC(C(=O)OCCC(F)=C(F)F)C(c2ccc(Cl)cc2)O1 (centres unmarked) [Compound 15]
- LC50 (Nematode eggs; in vivo): 11.88 µg/mL (≈ 34.1 µM)
- Earthworm Toxicity LC50 (14 d) (Earthworm): >10, low toxicity mg/L
- Edaphon Toxicity (15 d) (Inhibition ratio when added amount is 100 times of usual dose) (Edaphon): <50%, low toxicity
- LC50 (Nematode J2; in vivo): 12.69 µg/mL (≈ 36.4 µM)

SMILES: O=C1CC(C(=O)OCCC(F)=C(F)F)C(c2c(F)cccc2Cl)O1 (centres unmarked) [Compound 16]
- LC50 (Nematode eggs; in vivo): 10.91 µg/mL (≈ 29.8 µM)
- Earthworm Toxicity LC50 (14 d) (Earthworm): >10, low toxicity mg/L
- Edaphon Toxicity (15 d) (Inhibition ratio when added amount is 100 times of usual dose) (Edaphon): <50%, low toxicity
- LC50 (Nematode J2; in vivo): 12.25 µg/mL (≈ 33.4 µM)

SMILES: O=C1CC(C(=O)OCCC(F)=C(F)F)C(c2cc(Br)cc(Br)c2)O1 (centres unmarked) [Compound 18]
- LC50 (Nematode eggs; in vivo): 10.23 µg/mL (≈ 21.7 µM)
- Earthworm Toxicity LC50 (14 d) (Earthworm): >10, low toxicity mg/L
- Edaphon Toxicity (15 d) (Inhibition ratio when added amount is 100 times of usual dose) (Edaphon): <50%, low toxicity
- LC50 (Nematode J2; in vivo): 12.47 µg/mL (≈ 26.4 µM)
